In patent US6753322B2, “2-aminocarbonyl-9H-purine derivatives” (Pfizer Inc, priority 2000, dated 2004):

Each compound was assayed on neutrophils activated by fMLP (assay: superoxide production from neutrophils activated by fMLP). Details: Neutrophil; concentration giving 50% inhibition of fMLP-induced superoxide production compared to control response; human peripheral blood neutrophils, cytochalasin B priming, adenosine deaminase present, cytochrome C reduction readout.
Assay type: cell-based
Protocol: This is evaluated by determining the compound profile in an assay where superoxide production was measured from neutrophils activated by fMLP. Neutrophils were isolated from human peripheral blood using dextran sedimentation followed by centrifugation through Ficoll-Hypaque solution. Any contaminating erythrocytes in the granulocyte pellet were removed by lysis with ice-cold distilled water. Superoxide production from the neutrophils was induced by fMLP in the presence of a priming concentration of cytochalasin B. Adenosine deaminase was included in the assay to remove any endogenously produced adenosine that might suppress superoxide production. The effect of the compound on the fMLP-induced response was monitored colorometrically from the reduction of cytochrome C within the assay buffer. The potency of the compounds was assessed by the concentration giving 50% inhibition (IC50) compared to the control response to fMLP.

IC50, < 100 nM:
CCNC(=O)[C@H]1O[C@@H](n2cnc3c(NCC(c4ccccc4)c4ccccc4)nc(C(=O)NCCNC(=O)NCCN4CCCCC4)nc32)[C@H](O)[C@@H]1O [Example 1, 6-[(2,2-Diphenylethyl)amino]-9-{(2R,3R,4S,5S)-5-[(ethylamino)carbonyl]-3,4-dihydroxytetrahydro-2-furanyl}-N-{2-[({[2-(1-piperidinyl)ethyl]amino}carbonyl)amino]ethyl}-9H-purine-2-carboxamide]
CCNC(=O)[C@H]1O[C@@H](n2cnc3c(NCC(c4ccccc4)c4ccccc4)nc(C(=O)NCCNC(=O)NCCN(C(C)C)C(C)C)nc32)[C@H](O)[C@@H]1O [Example 2]
O=C(NCCNC(=O)c1nc(NCC(c2ccccc2)c2ccccc2)c2ncn([C@@H]3O[C@H](CO)[C@@H](O)[C@H]3O)c2n1)NCCN1CCCCC1 [Example 3, 9-[(2R,3R,4S,5R)-3,4-Dihydroxy-5-(hydroxymethyl)tetrahydro-2-furanyl]-6-[(2,2-diphenylethyl)amino]-N-{2-[({[2-(1-piperidinyl)ethyl]amino}carbonyl)amino]ethyl}-9H-purine-2-carboxamide]
CC(C)N(CCNC(=O)NCCNC(=O)c1nc(NCC(c2ccccc2)c2ccccc2)c2ncn([C@@H]3O[C@H](CO)[C@@H](O)[C@H]3O)c2n1)C(C)C [Example 4]
CCNC(=O)[C@H]1O[C@@H](n2cnc3c(NCC(c4ccccc4)c4ccccc4)nc(C(=O)NCCNC(=O)NCCN4CCC(C(C)C)CC4)nc32)[C@H](O)[C@@H]1O [Example 5, 6-[(2,2-Diphenylethyl)amino]-9-{(2R,3R,4S,5S)-5-[(ethylamino)carbonyl]-3,4-dihydroxytetrahydro-2-furanyl}-N-{2-[({[2-(4-isopropyl-1-piperidinyl)ethyl]amino}carbonyl)amino]ethyl}-9H-purine-2-carboxamide]
CCNC(=O)[C@H]1O[C@@H](n2cnc3c(NCC(c4ccccc4)c4ccccc4)nc(C(=O)NCCNC(=O)NCCN(C(C)C)C4CCCC4)nc32)[C@H](O)[C@@H]1O [Example 6, N-(2-{[({2-[Cycopentyl(isopropyl)amino]ethyl}amino)carbonyl]amino}ethyl)-6-[(2,2-diphenylethyl)amino]-9-{(2R,3R,4S,5S)-5-[(ethylamino)carbonyl]-3,4-dihydroxytetrahydro-2-furanyl}-9H-purine-2-carboxamide]
CCNC(=O)[C@H]1O[C@@H](n2cnc3c(NCC(c4ccccc4)c4ccccc4)nc(C(=O)NCCNC(=O)NCCN(C(C)C)C4CCCCC4)nc32)[C@H](O)[C@@H]1O [Example 7, N-(2-{[({2-[Cyclohexyl(isopropyl)amino]ethyl}amino)carbonyl]amino}ethyl)-6-[(2,2-diphenylethyl)amino]-9-{(2R,3R,4S,5S)-5-[(ethylamino)carbonyl]-3,4-dihydroxytetrahydro-2-furanyl}-9H-purine-2carboxamide]
CCNC(=O)[C@H]1O[C@@H](n2cnc3c(NCC(c4ccccc4)c4ccccc4)nc(C(=O)NCCNC(=O)NC4CCN(c5ccccn5)CC4)nc32)[C@H](O)[C@@H]1O [Example 8, 6-[(2,2-Diphenylethyl)amino]-9-{(2R,3R,4S,5S)-5-[(ethylamino)carbonyl]-3,4-dihydroxytetrahydro-2-furanyl}-N-{2-[({[1-(2-pyridinyl)-4-piperidinyl]amino}carbonyl)amino]ethyl}-9H-purine-2-carboxamide]
CCCCN(CCCC)CCNC(=O)NCCNC(=O)c1nc(NCC(c2ccccc2)c2ccccc2)c2ncn([C@@H]3O[C@H](C(=O)NCC)[C@@H](O)[C@H]3O)c2n1 [Example 9]
CCNC(=O)[C@H]1O[C@@H](n2cnc3c(NCC(c4ccccc4)c4ccccc4)nc(C(=O)NCCNC(=O)NC4CCN(Cc5ccccc5)CC4)nc32)[C@H](O)[C@@H]1O [Example 10]
CCNC(=O)[C@H]1O[C@@H](n2cnc3c(NCC(c4ccccc4)c4ccccc4)nc(C(=O)NCCNC(=O)NCCN(Cc4ccccc4)C(C)C)nc32)[C@H](O)[C@@H]1O [Example 11]
CCNC(=O)[C@H]1O[C@@H](n2cnc3c(NCC(c4ccccc4)c4ccccc4)nc(C(=O)NCCNC(=O)NCC4CCN(Cc5ccccc5)CC4)nc32)[C@H](O)[C@@H]1O [Example 12]
CCNC(=O)[C@H]1O[C@@H](n2cnc3c(NCC(c4ccccc4)c4ccccc4)nc(C(=O)NCCNC(=O)NCc4ccccc4)nc32)[C@H](O)[C@@H]1O [Example 13]
CCNC(=O)[C@H]1O[C@@H](n2cnc3c(NCC(c4ccccc4)c4ccccc4)nc(C(=O)NCCNC(=O)NCCc4ccccc4)nc32)[C@H](O)[C@@H]1O [Example 14]
CCNC(=O)[C@H]1O[C@@H](n2cnc3c(NCC(c4ccccc4)c4ccccc4)nc(C(=O)NCCNC(=O)NC4CCCCC4)nc32)[C@H](O)[C@@H]1O [Example 15]
CCNC(=O)[C@H]1O[C@@H](n2cnc3c(NCC(c4ccccc4)c4ccccc4)nc(C(=O)NCCNC(=O)NCCN4CCc5ccccc5C4)nc32)[C@H](O)[C@@H]1O [Example 16]
CCNC(=O)[C@H]1O[C@@H](n2cnc3c(NCC(c4ccccc4)c4ccccc4)nc(C(=O)NCCCNC(=O)NCCN4CCCCC4)nc32)[C@H](O)[C@@H]1O [Example 18]
CCNC(=O)[C@H]1O[C@@H](n2cnc3c(NCC(c4ccccc4)c4ccccc4)nc(C(=O)NCCCNC(=O)NCCN(C(C)C)C(C)C)nc32)[C@H](O)[C@@H]1O [Example 19]
CCNC(=O)[C@H]1O[C@@H](n2cnc3c(NCC(c4ccccc4)c4ccccc4)nc(C(=O)N[C@H]4CC[C@H](NC(=O)NCCN5CCCCC5)CC4)nc32)[C@H](O)[C@@H]1O [Example 20]
CCNC(=O)[C@H]1O[C@@H](n2cnc3c(NCC(c4ccccc4)c4ccccc4)nc(C(=O)N[C@H]4CC[C@H](NC(=O)NCCN(C(C)C)C(C)C)CC4)nc32)[C@H](O)[C@@H]1O [Example 21]
CCNC(=O)[C@H]1O[C@@H](n2cnc3c(NCC(c4ccccc4)c4ccccc4)nc(C(=O)NC4CCN(C(=O)NCCN(C(C)C)C(C)C)CC4)nc32)[C@H](O)[C@@H]1O [Example 22]
CCNC(=O)[C@H]1O[C@@H](n2cnc3c(NCC(c4ccccc4)c4ccccc4)nc(C(=O)N[C@@H]4CCN(C(=O)NCCN(C(C)C)C(C)C)C4)nc32)[C@H](O)[C@@H]1O [Example 23]
CCNC(=O)[C@H]1O[C@@H](n2cnc3c(NCC(c4ccccc4)c4ccccc4)nc(C(=O)N[C@@H]4CCN(C(=O)NCc5ccccc5)C4)nc32)[C@H](O)[C@@H]1O [Example 24]
CCNC(=O)[C@H]1O[C@@H](n2cnc3c(NCC(c4ccccc4)c4ccccc4)nc(C(=O)N4CCC(NC(=O)NCc5ccccc5)CC4)nc32)[C@H](O)[C@@H]1O [Example 25]
CCNC(=O)[C@H]1O[C@@H](n2cnc3c(NCC(c4ccccc4)c4ccccc4)nc(C(=O)N[C@@H]4CCN(C(=O)NCCc5ccccc5)C4)nc32)[C@H](O)[C@@H]1O [Example 26]
CCNC(=O)[C@H]1O[C@@H](n2cnc3c(NCC(c4ccccc4)c4ccccc4)nc(C(=O)N[C@@H]4CCN(C(=O)NC5CCN(c6ccccn6)CC5)C4)nc32)[C@H](O)[C@@H]1O [Example 27]
CCNC(=O)[C@H]1O[C@@H](n2cnc3c(NCC(c4ccccc4)c4ccccc4)nc(C(=O)N4CC[C@@H](NC(=O)NCCN(C(C)C)C(C)C)C4)nc32)[C@H](O)[C@@H]1O [Example 28]
CCNC(=O)[C@H]1O[C@@H](n2cnc3c(NCC(c4ccccc4)c4ccccc4)nc(C(=O)N4CC[C@H](NC(=O)NCCN(C(C)C)C(C)C)C4)nc32)[C@H](O)[C@@H]1O [Example 29]
CCNC(=O)[C@H]1O[C@@H](n2cnc3c(NCC(c4cccc(C)c4)c4cccc(C)c4)nc(C(=O)NCCNC(=O)NCCN(C(C)C)C(C)C)nc32)[C@H](O)[C@@H]1O [Example 30, 6-{[2,2-Bis(3-methylphenyl)ethyl]amino}-N-{2-[({[2-(diisopropylamino)ethyl]amino}carbonyl)-amino]ethyl}-9-{(2R,3R,4S,5S)-5-[(ethylamino)carbonyl]-3,4-dihydroxytetrahydro-2-furanyl}-9H-purine-2-carboxamide]
CCNC(=O)[C@H]1O[C@@H](n2cnc3c(NCC(c4cccc(Cl)c4)c4cccc(Cl)c4)nc(C(=O)NCCNC(=O)NCCN(C(C)C)C(C)C)nc32)[C@H](O)[C@@H]1O [Example 31]
CCNC(=O)[C@H]1O[C@@H](n2cnc3c(NCC(c4cccc(Cl)c4)c4cccc(Cl)c4)nc(C(=O)NCCNC(=O)NCCN4CCCCC4)nc32)[C@H](O)[C@@H]1O [Example 32, 6-{[2,2-Bis(3-chlorophenyl)ethyl]amino}-9-{(2R,3R,4S,5S)-5-[(ethylamino)carbonyl]-3,4-dihydroxytetrahydro-2-furanyl}-N-{2-[({[2-(1-piperidinyl)ethyl]amino}carbonyl)amino]ethyl}-9H-purine-2-carboxamide]
CCNC(=O)[C@H]1O[C@@H](n2cnc3c(NCC(c4cccc(C)c4)c4cccc(C)c4)nc(C(=O)NCCNC(=O)NCCN4CCCCC4)nc32)[C@H](O)[C@@H]1O [Example 33]
CCNC(=O)[C@H]1O[C@@H](n2cnc3c(NCC(c4ccccc4)c4ccccc4)nc(C(=O)NCCNC(=O)NCc4ccc(C(=O)O)cc4)nc32)[C@H](O)[C@@H]1O [Example 34, 4-[({[(2-{[(6-[(2,2-diphenylethyl)amino]-9-{(2R,3R,4S,5S)-5-[(ethylamino)carbonyl]-3,4-dihydroxytetrahydro-2-furanyl}-9H-purine-2-yl)carbonyl]amino}ethyl)amino]carbonyl}-amino)methyl]benzoic acid]
